According to patent publication US4659721A, “Alkanol derivatives, and pharmaceutical preparation containing these compounds” (Ludwig Heumann & Co. GmbH, priority 1984, dated 1987):

Assays:
histamine-H2 receptors = target: T1, histamine-H2 receptors (Rattus norvegicus, UniProt P25102); assay: Gosh-Schild rat (Stimulator: histamine); assay type: in vivo; details: iv, i.V., read-out: ID50 (the source's name)
T1 construct: from tissue; host or cells: rat stomach, perfused (in vivo Ghosh-Schild preparation)
T1 sequence (P25102 whole entry, the tested form may be a part): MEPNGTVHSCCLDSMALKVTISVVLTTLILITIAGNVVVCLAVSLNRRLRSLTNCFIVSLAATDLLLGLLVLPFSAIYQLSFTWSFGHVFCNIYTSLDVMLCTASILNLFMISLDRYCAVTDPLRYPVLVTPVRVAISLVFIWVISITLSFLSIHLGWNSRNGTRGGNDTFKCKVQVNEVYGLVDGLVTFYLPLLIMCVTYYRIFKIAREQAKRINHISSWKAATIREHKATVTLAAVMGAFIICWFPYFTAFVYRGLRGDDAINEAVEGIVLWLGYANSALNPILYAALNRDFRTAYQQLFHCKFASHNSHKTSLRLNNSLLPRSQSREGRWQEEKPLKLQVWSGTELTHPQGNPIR
Excerpt: These compounds also antagonize the histamine action on the frequency of contraction of the isolated right atrium of the guinea-pig but have no effect on histamine induced contractions of isolated, smooth gastrointestinal muscle when these are produced by […].
Experimental model: Gosh-Schild rat

[1] = therapeutic use, several daily doses of tablets with dose units of 160 to 300 mg; cited from earlier work

Compound	ED50 (histamine-H2 receptors) [µmol/kg]	half life [1]
CN/C(=N/CCSCc1nc[nH]c1C)NC#N [Cimetidine]	1.4	relatively short
CNC(=C[N+](=O)[O-])NCCSCc1ccc(CN(C)C)o1 [ranitidine]	–	relatively short
Nc1n[s+]([O-])nc1NCC(O)COCc1cccc(CN2CCCCC2)c1 (stereo not shown) [Example 1, 3-[2-Hydroxy-3-[3-(1-piperidylmethyl)-benzyloxy]propylamino]-4-amino-1,2,5-thiadiazole-1-oxide]	0.075	–
